In patent publication US10189838B2, “Aza-oxo-indoles for the treatment and prophylaxis of respiratory syncytial virus infection” (Hoffmann-La Roche Inc., priority 2013, dated 2019) one finds EC50 data, which are given here for 28 molecules.

pEC50: −log10 of the molar value.

The test relates to RSV Long strain. The experiment in a line: Viral cytopathic effect (CPE) assay, RSV Long strain. The test is classed as cell-based, Respiratory Syncytial Virus. To be noted: human respiratory syncytial virus, 144 h, cell viability after 6 days (Cell Counting kit-8). The method, then: EC50: the concentration of a compound where 50% of its maximal protection effect against viral induced CPE is observed
LongStrain: an A subtype RSV strain obtained from ATCC with catalog number VR-26
To measure anti-RSV activity of compounds, 96-well plates are seeded with 6×10^3 cells per well in Dulbecco's modified Eagle's medium (DMEM) containing 10% fetal bovine serum (FBS). Cells are infected the next day with sufficient RSV Long strain (ATCC) to produce an approximately 80-90% cytopathic effect after 6 days, in the presence of serial half-log diluted compound in a total volume of […] per well. The viability of cells is assessed after 6 days using Cell Counting kit-8 (Dojindo Molecular Technologies). The absorbance at 450 nm and referenced at 630 nm is measured to determine 50% effective concentration (EC50)
(Protection from cytopathic effect is a common read-out in antiviral testing.)
A word on the pEC50: it is −log10 of the EC50, conventionally taken in molar units. Low values mean a large EC50, high ones a small EC50. For `O=C1N(Cc2cc3cc(Cl)cnc3n2CCC2CS(=O)(=O)C2)c2cnccc2C12CC2` [Example 12, 1′-({5-Chloro-1-[2-(1,1-dioxidothietan-3-yl)ethyl]-1H-pyrrolo[2,3-b]pyridin-2-yl}methyl)spiro[cyclopropane-1,3′-pyrrolo[2,3-c]pyridin]-2′(1′H)-one], the pEC50 is 7.54.

Regarding `CS(=O)(=O)CCn1c(CN2C(=O)C3(CC3)c3ccncc32)cc2nc(Cl)ccc21` [Example 2-9, 1′-({5-Chloro-1-[2-(methylsulfonyl)ethyl]-1H-pyrrolo[3,2-b]pyridin-2-yl}methyl)spiro[cyclopropane-1,3′-pyrrolo[2,3-c]pyridin]-2′(1′H)-one], the pEC50 is 7.20. For `O=C1CNCCN1CCCn1c(CN2C(=O)C3(CC3)c3ccncc32)cc2cc(Cl)ccc21` [Example 24-4, 1′-({5-Chloro-1-[3-(2-oxopiperazin-1-yl)propyl]-1H-indol-2-yl}methyl)spiro[cyclopropane-1,3′-pyrrolo[2,3-c]pyridin]-2′(1′H)-one], the pEC50 is 7.52. This pEC50 is 0.32 log units higher than that of the molecule before. As for `CC(=O)N1CCN(CCn2c(CN3C(=O)C4(CC4)c4ccncc43)cc3cc(Cl)ccc32)CC1` [Example 26-1, 1′-({1-[2-(4-Acetylpiperazin-1-yl)ethyl]-5-chloro-1H-indol-2-yl}methyl)spiro[cyclopropane-1,3′-pyrrolo[2,3-c]pyridin]-2′(1′H)-one], the pEC50 is 7.60.

`CS(=O)(=O)CCn1c(CN2C(=O)C3(CC3)c3ccncc32)cc2cc(Cl)cc(F)c21` [Example 1-12, 1′-({5-Chloro-7-fluoro-1-[2-(methylsulfonyl)ethyl]-1H-indol-2-yl}methyl)spiro[cyclopropane-1,3′-pyrrolo[2,3-c]pyridin]-2′(1′H)-one] gave a pEC50 of 8.47. This pEC50 is 0.87 log units higher than that of the molecule before.

For `NCCn1c(CN2C(=O)C3(CC3)c3ccncc32)cc2cc(Cl)ccc21` [Example 24-5, 1′-{[1-(2-Aminoethyl)-5-chloro-1H-indol-2-yl]methyl}spiro[cyclopropane-1,3′-pyrrolo[2,3-c]pyridin]-2′(1′H)-one], the pEC50 is 7.19. With `CS(=O)(=O)CCn1c(CN2C(=O)C3(CC3)c3ccncc32)cc2cc(Br)ccc21` [Example 1-5, 1′-({5-Bromo-1-[2-(methylsulfonyl)ethyl]-1H-indol-2-yl}methyl)spiro[cyclopropane-1,3′-pyrrolo[2,3-c]pyridin]-2′(1′H)-one] the figure was 7.85; with `CS(=O)(=O)CCn1c(CN2C(=O)C3(CC3)c3ccncc32)cc2cc(C#N)ccc21` [Example 1-3, 1-[2-(Methylsulfonyl)ethyl]-2-[(2′-oxospiro[cyclopropane-1,3′-pyrrolo[2,3-c]pyridin]-1′(2′H)-yl)methyl]-1H-indole-5-carbonitrile], 6.03; with `CCS(=O)(=O)CCn1c(CN2C(=O)C3(CC3)c3ccncc32)cc2nc(Cl)ccc21` [Example 6, 1′-({5-Chloro-1-[2-(ethylsulfonyl)ethyl]-1H-pyrrolo[3,2-b]pyridin-2-yl}methyl)spiro[cyclopropane-1,3′-pyrrolo[2,3-c]pyridin]-2′(1′H)-one], 6.88. As to `O=C1N(Cc2cc3cc(Cl)ccc3n2CCCS(=O)(=O)N2CCOCC2)c2cnccc2C12CC2` [Example 7-4, 1′-({5-Chloro-1-[3-(morpholin-4-ylsulfonyl)propyl]-1H-indol-2-yl}methyl)spiro[cyclopropane-1,3′-pyrrolo[2,3-c]pyridin]-2′(1′H)-one], the pEC50 is 7.85. With `CCOC(=O)CCn1c(CN2C(=O)C3(CC3)c3ccncc32)cc2cc(Cl)ccc21` [Example 11, Ethyl 3-{5-chloro-2-[(2′-oxospiro[cyclopropane-1,3′-pyrrolo[2,3-c]pyridin]-1′(2′H)-yl)methyl]-1H-indol-1-yl}propanoate] the figure was 7.72; with `O=C1CNC(=O)N1CCn1c(CN2C(=O)C3(CC3)c3ccncc32)cc2cc(Cl)ccc21` [Example 20, 3-(2-{5-Chloro-2-[(2′-oxospiro[cyclopropane-1,3′-pyrrolo[2,3-c]pyridin]-1′(2′H)-yl)methyl]-1H-indol-1-yl}ethyl)imidazolidine-2,4-dione], 5.46; with `CS(=O)(=O)CCCc1c(CN2C(=O)C3(CC3)c3ccncc32)[nH]c2cc(Cl)ccc12` [Example 33, 1′-({6-Chloro-3-[3-(methylsulfonyl)propyl]-1H-indol-2-yl}methyl)spiro[cyclopropane-1,3′-pyrrolo[2,3-c]pyridin]-2′(1′H)-one], 8.22. Turning to `CCS(=O)(=O)CCn1c(CN2C(=O)C3(CC3)c3ccncc32)cc2cc(Cl)cnc21` [Example 2-2, 1′-({5-Chloro-1-[2-(ethylsulfonyl)ethyl]-1H-pyrrolo[2,3-b]pyridin-2-yl}methyl)spiro[cyclopropane-1,3′-pyrrolo[2,3-c]pyridin]-2′(1′H)-one], the pEC50 is 7.72.

`CNS(=O)(=O)CCCn1c(CN2C(=O)C3(CC3)c3ccncc32)cc2cc(Cl)cnc21` [Example 25-1, 3-{5-Chloro-2-[(2′-oxospiro[cyclopropane-1,3′-pyrrolo[2,3-c]pyridin]-1′(2′H)-yl)methyl]-1H-pyrrolo[2,3-b]pyridin-1-yl}-N-methylpropane-1-sulfonamide] had a pEC50 of 7.24. The molecule `O=C1N(Cc2cc3cc(Cl)ncc3n2CCC2CS(=O)(=O)C2)c2cnccc2C12CC2` [Example 4-11, 1′-({5-Chloro-1-[2-(1,1-dioxidothietan-3-yl)ethyl]-1H-pyrrolo[2,3-c]pyridin-2-yl}methyl)spiro[cyclopropane-1,3′-pyrrolo[2,3-c]pyridin]-2′(1′H)-one] gave a pEC50 of 7.74.

The molecule `C[S+]([O-])CCCn1c(CN2C(=O)C3(CC3)c3ccncc32)cc2cc(Cl)ccc21` (stereo not shown) [Example 5-1, 1′-({5-Chloro-1-[3-(methylsulfinyl)propyl]-1H-indol-2-yl}methyl)spiro[cyclopropane-1,3′-pyrrolo[2,3-c]pyridin]-2′(1′H)-one] had a pEC50 of 8.05. Next, `CS(=O)(=O)CCCn1c(CN2C(=O)C3(CC3)c3ccncc32)cc2cc(Cl)cnc21` [Example 4-3, 1′-({5-Chloro-1-[3-(methylsulfonyl)propyl]-1H-pyrrolo[2,3-b]pyridin-2-yl}methyl)spiro[cyclopropane-1,3′-pyrrolo[2,3-c]pyridin]-2′(1′H)-one]: 7.42; `O=C1N(Cc2cc3cc(Cl)ncc3n2CCC2CSC2)c2cnccc2C12CC2` [Example 4-10, 1′-({5-Chloro-1[2-(thietan-3-yl)ethyl]-1H-pyrrolo[2,3-c]pyridin-2-yl}methyl)spiro[cyclopropane-1,3′-pyrrolo[2,3-c]pyridin]-2′(1′H)-one]: 7.13. `O=C1N(Cc2cc3cc(Cl)ccc3n2CCCN2CCS(=O)(=O)CC2)c2cnccc2C12CC2` [Example 7-9, 1′-({5-Chloro-1-[3-(1,1-dioxidothiomorpholin-4-yl)propyl]-1H-indol-2-yl}methyl)spiro[cyclopropane-1,3′-pyrrolo[2,3-c]pyridin]-2′(1′H)-one]: the pEC50 is 6.10. With `O=C1N(Cc2nc3cc(Cl)ccc3n2CCC2COC2)c2cnccc2C12CC2` [Example 38-2, 1′-({5-Chloro-1-[2-(oxetan-3-yl)ethyl]-1H-benzimidazol-2-yl}methyl)spiro[cyclopropane-1,3′-pyrrolo[2,3-c]pyridin]-2′(1′H)-one] the figure was 8.52. On to `CS(=O)(=O)CCCCn1c(CN2C(=O)C3(CC3)c3ccncc32)cc2cc(Cl)ccc21` [Example 4-1, 1′-({5-Chloro-1-[4-(methylsulfonyl)butyl]-1H-indol-2-yl}methyl)spiro[cyclopropane-1,3′-pyrrolo[2,3-c]pyridin]-2′(1′H)-one], for which the pEC50 is 8.23. `NC(=O)CCCn1c(CN2C(=O)C3(CC3)c3ccncc32)cc2cc(Cl)ccc21` [Example 18-3, 4-{5-Chloro-2-[(2′-oxospiro[cyclopropane-1,3′-pyrrolo[2,3-c]pyridin]-1′(2′H)-yl)methyl]-1H-indol-1-yl}butanamide] gave a pEC50 of 7.96. Molecule `CC(=O)NCCn1c(CN2C(=O)C3(CC3)c3ccncc32)cc2cc(Cl)ccc21` [Example 26-3, N-(2-{5-Chloro-2-[(2′-oxospiro[cyclopropane-1,3′-pyrrolo[2,3-c]pyridin]-1′(2′H)-yl)methyl]-1H-indol-1-yl}ethyl)acetamide] showed a pEC50 of 7.60. In turn, `O=C1N(Cc2cc3cc(Cl)ccc3n2CCCO)c2cnccc2C12CC2` [Example 8, 1′-{[5-Chloro-1-(3-hydroxypropyl)-1H-indol-2-yl]methyl}spiro[cyclopropane-1,3′-pyrrolo[2,3-c]pyridin]-2′(1′H)-one] showed a pEC50 of 7.24.

As for `CCS(=O)(=O)CCn1c(CN2C(=O)C3(CC3)c3ccncc32)nc2cc(Cl)ccc21` [Example 34-5, 1′-({5-Chloro-1-[2-(ethylsulfonyl)ethyl]-1H-benzimidazol-2-yl}methyl)spiro[cyclopropane-1,3′-pyrrolo[2,3-c]pyridin]-2′(1′H)-one], the pEC50 is 7.89. `CN(Cc1ccccc1)S(=O)(=O)CCCn1c(CN2C(=O)C3(CC3)c3ccncc32)cc2cc(Cl)cnc21` [Example 4-8, N-Benzyl-3-{5-chloro-2-[(2′-oxospiro[cyclopropane-1,3′-pyrrolo[2,3-c]pyridin]-1′(2′H)-yl)methyl]-1H-pyrrolo[2,3-b]pyridin-1-yl}-N-methylpropane-1-sulfonamide] showed a pEC50 of 6.11. With `CS(=O)(=O)CCn1c(CN2C(=O)C3(CC3)c3c(Cl)cccc32)nc2cc(Cl)ccc21` [Example 34-3, 4′-Chloro-1′-({5-chloro-1-[2-(methylsulfonyl)ethyl]-1H-benzimidazol-2-yl}methyl)spiro[cyclopropane-1,3′-indol]-2′(1′H)-one] the figure was 7.18.
